{"source": "patent US20250230193A1", "about": "“CYCLIC COMPOUND HAVING SELECTIVE KRAS INHIBITORY EFFECT ON HRAS AND NRAS” (CHUGAI SEIYAKU KABUSHIKI KAISHA, priority 2022, published 2025)", "key": {"[1]": {"molecular_target": "GDP-bound HRAS wild-type protein (Homo sapiens, UniProt P01112)", "sequence (P01112 whole entry)": "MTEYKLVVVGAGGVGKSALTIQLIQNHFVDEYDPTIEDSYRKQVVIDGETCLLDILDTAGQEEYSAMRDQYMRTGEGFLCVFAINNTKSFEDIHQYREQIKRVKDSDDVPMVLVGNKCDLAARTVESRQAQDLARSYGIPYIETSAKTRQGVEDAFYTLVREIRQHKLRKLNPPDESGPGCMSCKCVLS", "experiment": "Binding to HRAS by surface plasmon resonance (SPR), Single Cycle Kinetics"}, "[2]": {"molecular_target": "GDP-bound NRAS wild-type protein (Homo sapiens, UniProt P01111)", "sequence (P01111 whole entry)": "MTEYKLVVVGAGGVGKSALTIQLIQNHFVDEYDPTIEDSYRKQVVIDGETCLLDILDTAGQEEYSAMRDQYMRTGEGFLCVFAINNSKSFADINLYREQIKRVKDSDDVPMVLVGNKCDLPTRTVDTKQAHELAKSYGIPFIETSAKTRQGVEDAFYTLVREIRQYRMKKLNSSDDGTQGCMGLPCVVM", "experiment": "Binding to NRAS by surface plasmon resonance (SPR), Single Cycle Kinetics"}, "[3]": {"conditions": "SPR, GDP-bound HRAS wild-type vs GDP-bound KRAS wild-type"}, "[4]": {"conditions": "SPR, GDP-bound NRAS wild-type vs GDP-bound KRAS wild-type"}, "[5]": {"conditions": "KD ratio, GDP-bound HRAS wild-type vs GDP-bound KRAS wild-type, SPR"}, "[6]": {"conditions": "KD ratio, GDP-bound NRAS wild-type vs GDP-bound KRAS wild-type, SPR"}}, "note": "Where a SMILES comes first, the peptide text is derived from it. Bridges are numbered along the chain shown (N, C = ends). [ ]: non-standard residue; d: D form. The star is where a group is joined. hPhe(3-Cl-4-CF3) = N[C@@H](CCc1ccc(C(F)(F)F)c(Cl)c1)C(=O)O; NPrPhe(4-CF3) = CCCN[C@@H](Cc1ccc(C(F)(F)F)cc1)C(=O)O; NMeGly(cPent) = CN[C@H](C(=O)O)C1CCCC1; Pro(4,4-F2) = O=C(O)[C@@H]1CC(F)(F)CN1; NMeD = CN[C@@H](CC(=O)O)C(=O)O; NMeAbu = CC[C@H](NC)C(=O)O; Morpholide = C1CN(*)CCO1; Ac5c = NC1(C(=O)O)CCCC1; Sar = CNCC(=O)O", "data": [{"smiles": "CCC[C@H]1C(=O)N[C@@H]([C@@H](C)CC)C(=O)N(C)CC(=O)N(C)[C@H]2C/C=C\\CCN(C2=O)[C@@H](Cc2ccc(C)cc2)C(=O)N(C)CC(=O)N[C@@H](CCc2cc(F)c(C(F)(F)F)c(F)c2)C(=O)N2C[C@H](OCC)C[C@H]2C(=O)NC2(CC(C)(C)C2)C(=O)N(C)[C@@H](CC(C)(C)C)C(=O)N(C)[C@H](C(=O)N(C)C)CC(=O)N1C", "note": "[PP2706]", "values": [{"measurement": "HRAS/KRAS (ratio of KD value with respect to GDP-bound HRAS wild-type protein to KD value with respect to KRAS)", "setting": "[1]; KD ratio HRAS/KRAS, class symbols", "value": "B (a compound having 3 or more and less than 10 is denoted as B)"}, {"measurement": "NRAS/KRAS (ratio of KD value with respect to GDP-bound NRAS wild-type protein to KD value with respect to KRAS)", "setting": "[2]; KD ratio NRAS/KRAS, class symbols", "value": "A (a compound having 10 or more and less than 20 is denoted as A)"}]}, {"smiles": "CCOC[C@H]1C(=O)N[C@@H]([C@@H](C)CC)C(=O)N(C)CC(=O)N(C)[C@H]2C/C=C\\CCN(C2=O)[C@@H](CC2CCC(F)(F)CC2)C(=O)N(C)CC(=O)N[C@@H](CCc2cc(F)c(C(F)(F)F)c(F)c2)C(=O)N2C[C@H](OCC)C[C@H]2C(=O)NC2(CC(C)(C)C2)C(=O)N(C)[C@@H](C(CC)CC)C(=O)N(C)[C@H](C(=O)N(C)C)CC(=O)N1C", "note": "[PP2450]", "values": [{"measurement": "HRAS/KRAS (ratio of KD value with respect to HRAS to KD value with respect to KRAS)", "setting": "[1]; [3]", "value": "A (a compound having 10 or more and less than 20 is denoted as A)"}, {"measurement": "NRAS/KRAS (ratio of KD value with respect to NRAS to KD value with respect to KRAS)", "setting": "[2]; [4]", "value": "A (a compound having 10 or more and less than 20 is denoted as A)"}]}, {"smiles": "CCCN1C(=O)CN(C)C(=O)CN(C)C(=O)[C@H]([C@@H](C)CC)NC(=O)[C@H](CC)N(C)C(=O)C[C@@H](C(=O)N2CCOCC2)N(C)C(=O)[C@H](C2CCCC2)N(C)C(=O)C2(CCCC2)NC(=O)[C@@H]2CC(F)(F)CN2C(=O)[C@H](CCc2ccc(C(F)(F)F)c(Cl)c2)NC(=O)CN(C)C(=O)[C@@H]1Cc1ccc(C(F)(F)F)cc1", "note": "[PP0202] ([NMeAbu]I[Sar][Sar][NPrPhe(4-CF3)][Sar][hPhe(3-Cl-4-CF3)][Pro(4,4-F2)][Ac5c][NMeGly(cPent)][NMeD]-Morpholide; lactam N-11)", "values": [{"measurement": "HRAS/KRAS (ratio of KD for GDP-bound HRAS wild-type to KD for KRAS)", "setting": "[1]; KD ratio HRAS/KRAS, SPR", "value": "C (A compound having a KD ratio of 0.1 or more and less than 3 is denoted as C)"}, {"measurement": "NRAS/KRAS (ratio of KD for GDP-bound NRAS wild-type to KD for KRAS)", "setting": "[2]; KD ratio NRAS/KRAS, SPR", "value": "B (a compound having 3 or more and less than 10 is denoted as B)"}]}, {"smiles": "CCO[C@@H]1C[C@H]2C(=O)NC3(CCC3)C(=O)N(C)[C@@H](C3CCCC3)C(=O)N(CC)[C@H](C(=O)N3CCOCC3)CC(=O)N(C)[C@@H](CCC(Cl)Cl)C(=O)N[C@@H]([C@@H](C)CC)C(=O)N(C)CC(=O)N(C)[C@H]3CCCCCN(C3=O)[C@@H](Cc3ccc(C(F)(F)F)cc3)C(=O)N(C)CC(=O)N[C@@H](CCc3cc(F)c(C(F)(F)F)c(F)c3)C(=O)N2C1", "note": "[PP0949]", "values": [{"measurement": "HRAS/KRAS (ratio of KD value with respect to HRAS to KD value with respect to KRAS)", "setting": "[1]; [5]", "value": "A (a compound having 10 or more and less than 20 is denoted as A)"}, {"measurement": "NRAS/KRAS (ratio of KD value with respect to NRAS to KD value with respect to KRAS)", "setting": "[2]; [6]", "value": "A (a compound having 10 or more and less than 20 is denoted as A)"}]}, {"smiles": "CC[C@H](C)[C@@H]1NC(=O)[C@H](CC(C)C)N(C)C(=O)C[C@@H](C(=O)N2CCOCC2)N(C)C(=O)[C@H](C2CCCC2)N(C)C(=O)C2(CCCC2)NC(=O)[C@@H]2CCCN2C(=O)[C@H](CCc2cc(F)c(C(F)(F)F)c(F)c2)NC(=O)CN(C)C(=O)[C@H](Cc2ccc(C(F)(F)F)cc2)N2CCCC[C@@H](C2=O)N(C)C(=O)[C@@H]2CCCN2C1=O", "note": "[PP0547]", "values": [{"measurement": "HRAS/KRAS (ratio of KD value with respect to GDP-bound HRAS wild-type protein to KD value with respect to KRAS)", "setting": "[1]; KD ratio HRAS/KRAS, SPR", "value": "B (a compound having 3 or more and less than 10 is denoted as B)"}, {"measurement": "NRAS/KRAS (ratio of KD value with respect to GDP-bound NRAS wild-type protein to KD value with respect to KRAS)", "setting": "[2]; KD ratio NRAS/KRAS, SPR", "value": "B (a compound having 3 or more and less than 10 is denoted as B)"}]}, {"smiles": "CCO[C@@H]1C[C@H]2C(=O)NC3(CC(C)(C)C3)C(=O)N(C)[C@@H](C(CC)CC)C(=O)N(C)[C@H](C(=O)N(C)C)CC(=O)N(C)[C@@H](C)C(=O)N[C@@H]([C@@H](C)CC)C(=O)N(C)CC(=O)N(C)[C@H]3C/C=C\\CCN(C3=O)[C@@H](Cc3ccc(C)cc3)C(=O)N(C)CC(=O)N[C@@H](CCc3ccc(Cl)c(Cl)c3)C(=O)N2C1", "note": "[PP2186]", "values": [{"measurement": "HRAS/KRAS (ratio of KD value with respect to HRAS to KD value with respect to KRAS)", "setting": "[1]; [3]", "value": "A (a compound having 10 or more and less than 20 is denoted as A)"}, {"measurement": "NRAS/KRAS (ratio of KD value with respect to NRAS to KD value with respect to KRAS)", "setting": "[2]; [4]", "value": "AA (a compound having 20 or more is denoted as AA)"}]}, {"smiles": "CCC[C@H]1C(=O)N[C@@H]([C@@H](C)CC)C(=O)N(C)CC(=O)N(C)[C@H]2C/C=C\\CCN(C2=O)[C@@H](Cc2ccc(C(F)(F)F)cc2)C(=O)N(C)CC(=O)N[C@@H](CCc2cc(F)c(C(F)(F)F)c(F)c2)C(=O)N2C[C@H](OCC)C[C@H]2C(=O)NC2(CC(C)(C)C2)C(=O)N(C)[C@@H](C2CCCC2)C(=O)N(C)[C@H](C(=O)N(C)CC)CC(=O)N1C", "note": "[PP1646]", "values": [{"measurement": "HRAS/KRAS (ratio of KD value for HRAS to KD value for KRAS)", "setting": "[1]; [5]", "value": "A (a compound having 10 or more and less than 20 is denoted as A)"}, {"measurement": "NRAS/KRAS (ratio of KD value for NRAS to KD value for KRAS)", "setting": "[2]; [6]", "value": "A (a compound having 10 or more and less than 20 is denoted as A)"}]}]}
